# Source: publication PMC10615177 (ACS infectious diseases, 2023)
# Where two headings read alike, the source gives them in different places.
# Tests used:
# [1] = test system: Plasmodium falciparum asexual blood stages; experiment: P. falciparum asexual blood stage; type: cell-based
# in vitro [2] = details: human
# [3] = DSC of DMPC bilayers with inhibitor; type: physicochemical
# [4] = DSC of DSPG bilayers with inhibitor; type: physicochemical
# [5] = test system: T. brucei bloodstream forms; experiment: T. brucei bloodstream form growth inhibition; type: cell-based, Trypanosoma brucei; details: Trypanosoma brucei, read-out: T. brucei IC50
# E. coli = E. coli growth inhibition; type: cell-based, Escherichia coli; details: Escherichia coli, read-out: Ec IC50
# [6] = test system: M. abscessus smooth variant; experiment: microbe, parasite or virus in culture; type: cell-based; details: Mycobacteroides abscessus
# in vitro [7] = details: human; remark: listed apart in the source
# [8] = test system: L. mexicana promastigotes; experiment: L. mexicana promastigote growth inhibition; type: cell-based, Leishmania mexicana
# M. tuberculosis H37Rv = M. tuberculosis H37Rv growth inhibition; type: cell-based, Mycobacterium tuberculosis; details: Mycobacterium tuberculosis, H37RV, read-out: Mtb H37Rv MIC
# [9] = [14C-SQ109], mice; cited from earlier work
# [10] = test system: M. abscessus rough variant; experiment: microbe, parasite or virus in culture; type: cell-based; details: Mycobacteroides abscessus, read-out: Ma(R) MIC
# [11] = test system: T. cruzi Dm28c intracellular amastigotes; experiment: T. cruzi intracellular amastigote inhibition; type: cell-based, Trypanosoma cruzi; details: Trypanosoma cruzi, U2OS, read-out: T. cruzi IC50 (PAR)
# [12] = test system: T. cruzi Dm28c epimastigotes; experiment: T. cruzi epimastigote growth inhibition; type: cell-based, Trypanosoma cruzi; details: Trypanosoma cruzi, read-out: T. cruzi IC50 (EPI)
# Bacillus subtilis = experiment: B. subtilis growth inhibition; type: cell-based; details: Bacillus subtilis, read-out: Bs IC50
# [13] = rat, in vivo; cited from earlier work
# M. smegmatis = M. smegmatis cell growth inhibition; type: cell-based, Mycobacterium smegmatis; details: Mycolicibacterium smegmatis, read-out: Ms IC50, M. smegmatis
# [14] = test system: M. abscessus strain PIPD1^R1 (A309P mutation in MmpL3)
# M. tuberculosis Erdman = M. tuberculosis Erdman growth inhibition; type: cell-based, Mycobacterium tuberculosis; details: Mycobacterium tuberculosis, ERDMAN, read-out: Mtb Erdman MIC
# [15] = dog, in vivo; cited from earlier work
# [16] = target: M. tuberculosis MmpL3 (MtMmpL3) (Mycobacterium tuberculosis, UniProt P9WJV5); experiment: Surface plasmon resonance binding to MmpL3; details: two-state model
# Chain of M. tuberculosis MmpL3 (MtMmpL3) (P9WJV5 whole entry): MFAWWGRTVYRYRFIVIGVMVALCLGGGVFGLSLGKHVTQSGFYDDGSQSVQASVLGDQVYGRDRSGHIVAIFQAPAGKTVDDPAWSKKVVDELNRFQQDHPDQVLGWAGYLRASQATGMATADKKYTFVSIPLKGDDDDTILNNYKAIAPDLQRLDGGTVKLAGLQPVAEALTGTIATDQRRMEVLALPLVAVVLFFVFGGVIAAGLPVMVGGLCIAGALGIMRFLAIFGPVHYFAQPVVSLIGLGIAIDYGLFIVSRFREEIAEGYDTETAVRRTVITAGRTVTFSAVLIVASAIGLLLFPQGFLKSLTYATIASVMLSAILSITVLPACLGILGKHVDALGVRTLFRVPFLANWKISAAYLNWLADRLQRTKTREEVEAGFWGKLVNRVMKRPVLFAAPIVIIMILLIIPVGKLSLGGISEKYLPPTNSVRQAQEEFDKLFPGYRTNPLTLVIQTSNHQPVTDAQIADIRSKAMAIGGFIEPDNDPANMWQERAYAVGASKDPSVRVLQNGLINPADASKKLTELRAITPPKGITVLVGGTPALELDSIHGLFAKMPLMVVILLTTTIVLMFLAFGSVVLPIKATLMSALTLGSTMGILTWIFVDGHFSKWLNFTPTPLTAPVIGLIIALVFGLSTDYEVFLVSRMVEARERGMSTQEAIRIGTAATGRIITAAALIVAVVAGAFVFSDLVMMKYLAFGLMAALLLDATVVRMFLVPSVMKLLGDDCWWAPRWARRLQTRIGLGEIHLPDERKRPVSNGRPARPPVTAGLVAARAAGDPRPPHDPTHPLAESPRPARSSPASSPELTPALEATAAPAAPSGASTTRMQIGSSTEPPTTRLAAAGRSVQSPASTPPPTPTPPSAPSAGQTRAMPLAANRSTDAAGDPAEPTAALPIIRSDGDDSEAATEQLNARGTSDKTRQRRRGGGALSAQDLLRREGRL
# M. tuberculosis HN878 = M. tuberculosis HN878 growth inhibition; type: cell-based, Mycobacterium tuberculosis; details: Mycobacterium tuberculosis
# [17] = test system: L. donovani promastigotes; experiment: L. donovani promastigote growth inhibition; type: cell-based, Leishmania donovani; details: Leishmania donovani, read-out: L. donovani IC50
# [18] = 10 wt % inhibitor, PBS pH 7.4, heating
compound,measurement,setting,value
"CC(C)=CCC/C(C)=C/CNCCNC1C2CC3CC(C2)CC1C3 (centres unmarked) [Compound 8a, N-geranyl-N΄-(2-adamantyl)ethane-1,2-diamine, reference compound]",IC50,"[1]; Plasmodium falciparum, read-out: PfABS IC50 (μM ± S.E.), asexual blood stages",1.6 µM
same,IC50,"[1]; read-out: PfABS IC50 (μM ± S.E.), asexual blood stages",1.58 ± 0.2 µM
same,viability at 20 µM,in vitro [2],97%
same,Tm (main transition),[3]; [18],20.6 °C
same,ΔH,[3]; [18],5.57 kcal/mol
same,ΔT1/2,[3]; [18],2.6 °C
same,Decrease of Tm compared to DMPC without inhibitor,[3]; heating,3–4 °C
same,Tm (main transition),[4]; [18],50.4 °C
same,ΔH,[4]; [18],12.9 kcal/mol
same,ΔT1/2,[4]; [18],2.1 °C
same,Broadening of main transition peak ΔΤ1/2 compared to pure DSPG,[4]; heating,0.2–1.6 °C
same,Decrease of Tm compared to DSPG alone,[4]; heating,3–4 °C
same,IC50,[5],910 ± 30 nM
same,IC50,E. coli,15000 nM
same,MIC,[6]; read-out: MIC against M. abscessus,22 to 44 µM
same,MIC,[6]; read-out: Ma(S) MIC,44 µM
same,CC50,in vitro [7],4100 ± 200 nM
same,IC50,"[8]; Leishmania mexicana, read-out: L. mexicana IC50, promastigotes",500 nM
same,IC50,"[8]; read-out: L. mexicana IC50, promastigotes",730 ± 200 nM
same,MIC,M. tuberculosis H37Rv,1.8 µM
same,half-life,[9],5 h
same,MIC,[10],22 µM
same,IC50,[11],740 ± 40 nM
same,IC50,[12],6800 ± 2000 nM
same,IC50,Bacillus subtilis,16000 nM
same,half-life,[13],> 5 h
same,IC50,M. smegmatis,~2400 nM
same,Resistance of A309P MmpL3 mutant,[14],not resistant
same,MIC,M. tuberculosis Erdman,1.8 µM
same,half-life,[15],> 5 h
same,ka1,[16],429.8 M⁻¹ s⁻¹
same,ka2,[16],0.005315 s⁻¹
same,kd1,[16],1.098 s⁻¹
same,kd2,[16],0.02222 s⁻¹
same,MIC,"M. tuberculosis HN878; HN878, read-out: MIC against M. tuberculosis",0.3 to 1 µM
same,IC50,"M. tuberculosis HN878; HN878, read-out: Mtb HN878 IC50, dose-response curves",270 ± 20 nM
same,MIC,"M. tuberculosis HN878; HN878, read-out: Mtb HN878 MIC",0.4 µM
same,IC50,[17],2000 ± 100 nM
